Assay results published in PubChem BioAssay AID256 (DTP/NCI, 2004).
Where “and” joins values, the source holds several entries; their conditions need not be identical. Equal values may be shown once. Inconclusive results and toxic doses are left out. How the source made its calls: active means survival T/C of 150% or more; inactive means T/C below 125% in these data.

Test system: CD2F1 mice, L1210 leukemia ip, survival T/C
Assay: NCI In Vivo Anticancer Drug Screen. Data for tumor model L1210 Leukemia (intraperitoneal) in CD2F1 (CDF1) mice
Conditions: higher = longer survival
Summary of the method: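 Mice carrying a transplanted tumor received test compound or vehicle alone. The value is the measurement in the treated group divided by that in the vehicle-treated control group.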

[1] = endpoint: mean survival time, dose: 100.0 mg/kg/injection, schedule: Q04DX003 (ip), vehicle: saline
[2] = endpoint: mean survival time, dose: 200.0 mg/kg/injection, schedule: Q04DX003 (ip), vehicle: saline
[3] = endpoint: mean survival time, dose: 100.0 mg/kg/injection, schedule: Q01DX009 (ip), vehicle: saline with Tween-80
[4] = endpoint: mean survival time, dose: 100.0 mg/kg/injection, schedule: Q04DX003 (ip), vehicle: saline with Tween-80
[5] = endpoint: mean survival time, dose: 200.0 mg/kg/injection, schedule: Q01DX009 (ip), vehicle: saline with Tween-80
[6] = endpoint: mean survival time, dose: 200.0 mg/kg/injection, schedule: Q04DX003 (ip), vehicle: saline with Tween-80
[7] = endpoint: mean survival time, dose: 400.0 mg/kg/injection, schedule: Q01DX009 (ip), vehicle: saline with Tween-80
[8] = endpoint: mean survival time, dose: 400.0 mg/kg/injection, schedule: Q04DX003 (ip), vehicle: saline with Tween-80

Measured: T/C

CCCC(=O)O
inactive: endpoint: mean survival time, dose: 1.25 mg/kg/injection, schedule: Q01DX009 (ip), vehicle: saline 96 % of control | endpoint: mean survival time, dose: 12.5 mg/kg/injection, schedule: Q01DX009 (ip), vehicle: saline 98 % of control | endpoint: mean survival time, dose: 25.0 mg/kg/injection, schedule: Q01DX009 (ip), vehicle: saline 96 % of control and 100 % of control | endpoint: mean survival time, dose: 50.0 mg/kg/injection, schedule: Q01DX009 (ip), vehicle: saline 96 % of control and 97 % of control | endpoint: mean survival time, dose: 100.0 mg/kg/injection, schedule: Q01DX009 (ip), vehicle: saline 97 % of control and 100 % of control | [1] 102 % of control | endpoint: mean survival time, dose: 200.0 mg/kg/injection, schedule: Q01DX009 (ip), vehicle: saline 95 % of control and 107 % of control | [2] 102 % of control | endpoint: mean survival time, dose: 400.0 mg/kg/injection, schedule: Q04DX003 (ip), vehicle: saline 105 % of control

Fc1c(F)c(F)c(-c2nnc(-c3c(F)c(F)c(F)c(F)c3F)o2)c(F)c1F
inactive: endpoint: mean survival time, dose: 100.0 mg/kg/injection, schedule: Q01DX001 (ip), vehicle: saline with Tween-80 96 % of control | endpoint: mean survival time, dose: 200.0 mg/kg/injection, schedule: Q01DX001 (ip), vehicle: saline with Tween-80 96 % of control | endpoint: mean survival time, dose: 400.0 mg/kg/injection, schedule: Q01DX001 (ip), vehicle: saline with Tween-80 95 % of control

O=c1[nH]c(NCCc2ccccc2)c(Br)c(=O)[nH]1
inactive: endpoint: mean survival time, dose: 75.0 mg/kg/injection, schedule: Q01DX001 (ip), vehicle: saline with Tween-80 98 % of control | endpoint: mean survival time, dose: 150.0 mg/kg/injection, schedule: Q01DX001 (ip), vehicle: saline with Tween-80 102 % of control | endpoint: mean survival time, dose: 300.0 mg/kg/injection, schedule: Q01DX001 (ip), vehicle: saline with Tween-80 106 % of control

COC(c1ccccc1)C(c1ccccc1)[N+]1(C)CCCCC1 (stereo not drawn)
inactive: endpoint: mean survival time, dose: 75.0 mg/kg/injection, schedule: Q01DX001 (ip), vehicle: saline 97 % of control | endpoint: mean survival time, dose: 150.0 mg/kg/injection, schedule: Q01DX001 (ip), vehicle: saline 113 % of control | endpoint: mean survival time, dose: 300.0 mg/kg/injection, schedule: Q01DX001 (ip), vehicle: saline 97 % of control

CC(C)CC(N)C(=O)O (stereo not drawn) (tested in a mixture with another compound)
inactive: endpoint: median survival time, dose: 3.13 mg/kg/injection, schedule: Q04DX002 (ip), vehicle: saline 111 % of control and 108 % of control | endpoint: median survival time, dose: 6.25 mg/kg/injection, schedule: Q04DX002 (ip), vehicle: saline 105 % of control and 100 % of control and 111 % of control | endpoint: median survival time, dose: 12.5 mg/kg/injection, schedule: Q04DX002 (ip), vehicle: saline 100 % of control and 105 % of control | endpoint: median survival time, dose: 25.0 mg/kg/injection, schedule: Q04DX002 (ip), vehicle: saline 100 % of control and 105 % of control | endpoint: median survival time, dose: 50.0 mg/kg/injection, schedule: Q04DX002 (ip), vehicle: saline 111 % of control and 100 % of control and 108 % of control | endpoint: median survival time, dose: 100.0 mg/kg/injection, schedule: Q04DX002 (ip), vehicle: saline 105 % of control | endpoint: median survival time, dose: 200.0 mg/kg/injection, schedule: Q04DX002 (ip), vehicle: saline 108 % of control | endpoint: median survival time, dose: 400.0 mg/kg/injection, schedule: Q04DX002 (ip), vehicle: saline 96 % of control

NC(=O)C(Cl)(Cl)C(Cl)(Cl)C(Cl)(Cl)Cl
inactive: [3] 100 % of control | [4] 100 % of control | [5] 93 % of control | [6] 95 % of control | [7] 90 % of control | [8] 94 % of control

Cc1nc(SCc2ccccc2)[nH]c(=O)c1CCO
inactive: [4] 96 % of control | [6] 96 % of control

[I-].[Ni+2].[O-]/N=C/c1ccccn1.[O-]/N=C/c1ccccn1.[O-]/N=C/c1ccccn1
inactive: endpoint: mean survival time, dose: 100.0 mg/kg/injection, schedule: Q01DX001 (ip), vehicle: saline 106 % of control

COC(=O)C1C2CC(C3OC23)C1C(=O)OC (stereo not drawn)
inactive: [3] 100 % of control | [4] 97 % of control | [5] 115 % of control | [6] 89 % of control | [7] 102 % of control | [8] 103 % of control

CC1([N+](=O)[O-])COC(c2ccc(Cl)cc2)OC1 (stereo not drawn)
inactive: endpoint: mean survival time, dose: 100.0 mg/kg/injection, schedule: Q04DX003 (ip), vehicle: Klucel (hydroxypropylcellulose) (HPC) 96 % of control | endpoint: mean survival time, dose: 200.0 mg/kg/injection, schedule: Q04DX003 (ip), vehicle: Klucel (hydroxypropylcellulose) (HPC) 104 % of control

O=c1[nH]c(=O)n(C2OC(COP(=O)(O)O)C(O)C2O)nc1SCc1ccccc1 (stereo not drawn)
inactive: endpoint: median survival time, dose: 5.0 mg/kg/injection, schedule: Q01DX005 (ip), vehicle: distilled water + Tween-80 109 % of control | endpoint: median survival time, dose: 10.0 mg/kg/injection, schedule: Q01DX005 (ip), vehicle: distilled water + Tween-80 98 % of control | endpoint: median survival time, dose: 20.0 mg/kg/injection, schedule: Q01DX005 (ip), vehicle: distilled water + Tween-80 96 % of control | endpoint: median survival time, dose: 40.0 mg/kg/injection, schedule: Q01DX005 (ip), vehicle: distilled water + Tween-80 105 % of control | endpoint: median survival time, dose: 80.0 mg/kg/injection, schedule: Q01DX005 (ip), vehicle: distilled water + Tween-80 117 % of control

CC(C)(C)NC(=O)Cc1ccccc1
inactive: endpoint: mean survival time, dose: 50.0 mg/kg/injection, schedule: Q01DX009 (ip), vehicle: saline with Tween-80 95 % of control | [3] 97 % of control | [5] 95 % of control

CCC(CN(C)C)C(=O)c1ccccc1 (stereo not drawn)
inactive: [1] 91 % of control | endpoint: mean survival time, dose: 200.0 mg/kg/injection, schedule: Q04DX002 (ip), vehicle: saline with Tween-80 86 % of control | [2] 95 % of control

O=C(Nc1cccnc1)c1ccccc1
inactive: endpoint: mean survival time, dose: 6.25 mg/kg/injection, schedule: Q01DX009 (ip), vehicle: saline with Tween-80 102 % of control | endpoint: mean survival time, dose: 12.5 mg/kg/injection, schedule: Q01DX009 (ip), vehicle: saline with Tween-80 102 % of control | endpoint: mean survival time, dose: 25.0 mg/kg/injection, schedule: Q01DX009 (ip), vehicle: saline with Tween-80 113 % of control

CO[C@@]12[C@H](COC(N)=O)C3=C(C(=O)C(C)=C(N)C3=O)N1C[C@H]1[C@@H]2N1C(=O)[C@@H]1N2C(=O)[C@@H](NC(=O)Cc3ccccc3)[C@H]2SC1(C)C
inactive: endpoint: mean survival time, dose: 25.0 mg/kg/injection, schedule: Q01DX001 (ip), vehicle: carboxymethylcellulose (CMC) 109 % of control | endpoint: mean survival time, dose: 25.0 mg/kg/injection, schedule: Q01DX007 (ip), vehicle: carboxymethylcellulose (CMC) 120 % of control | endpoint: mean survival time, dose: 25.0 mg/kg/injection, schedule: Q01DX007 (oral), vehicle: carboxymethylcellulose (CMC) 100 % of control | endpoint: mean survival time, dose: 50.0 mg/kg/injection, schedule: Q01DX001 (ip), vehicle: carboxymethylcellulose (CMC) 113 % of control | endpoint: mean survival time, dose: 50.0 mg/kg/injection, schedule: Q01DX007 (ip), vehicle: carboxymethylcellulose (CMC) 116 % of control | endpoint: mean survival time, dose: 50.0 mg/kg/injection, schedule: Q01DX007 (oral), vehicle: carboxymethylcellulose (CMC) 96 % of control | endpoint: mean survival time, dose: 100.0 mg/kg/injection, schedule: Q01DX001 (ip), vehicle: carboxymethylcellulose (CMC) 111 % of control | endpoint: mean survival time, dose: 200.0 mg/kg/injection, schedule: Q01DX001 (ip), vehicle: carboxymethylcellulose (CMC) 111 % of control | endpoint: mean survival time, dose: 400.0 mg/kg/injection, schedule: Q01DX001 (ip), vehicle: carboxymethylcellulose (CMC) 111 % of control

O.O=P(O)(O)O.[NH-]C1CCCCC1[NH-].[Pt+2] (stereo not drawn)
inactive: endpoint: mean survival time, dose: 50.0 mg/kg/injection, schedule: Q04DX003 (ip), vehicle: water 120 % of control

C=CCCCCn1c2ccccc2c2c(C)c3cnccc3c(C)c21
inactive: [3] 102 % of control | [5] 102 % of control | [7] 97 % of control

CCCCCCCCCC[n+]1cccc(C(N)=O)c1
inactive: endpoint: mean survival time, dose: 5.0 mg/kg/injection, schedule: Q01DX009 (ip), vehicle: saline with Tween-80 97 % of control | endpoint: mean survival time, dose: 10.0 mg/kg/injection, schedule: Q01DX009 (ip), vehicle: saline with Tween-80 97 % of control | endpoint: mean survival time, dose: 20.0 mg/kg/injection, schedule: Q01DX009 (ip), vehicle: saline with Tween-80 100 % of control
